Measurements taken from patent publication US20090191173A1, “Induction Of Neurogenesis And Stem Cell Therapy In Combination With Copolymer 1” (priority 2004, published 2009).

Legend:
[1] = test system: aNPCs; assay: Neuronal differentiation of aNPCs with CD4+ T cells, T cell-conditioned medium or cytokines; format: cell-based, mouse; conditions: 5 days in culture with cytokine, concentrations as low as 1 ng/ml
Experimental: (xvii) Co-culturing of neural progenitor cells and T cells. CD4+ T cells were purified from lymph nodes of 8-week-old C57B16/J mice as previously described (Kipnis et al., 2004). T cells were activated in RPMI medium supplemented with L-glutamine (2 mM), 2-mercaptoethanol (5×10^−5 M), sodium pyruvate (1 mM), penicillin (100 IU/ml), streptomycin (100 μg/ml), nonessential amino acids (1 ml/100 ml), and autologous serum 2% (v/v) in the presence of mouse recombinant IL-2 (mrIL-2; 5 ng/ml) and soluble anti-CD28 and anti-CD3. antibodies (1 ng/ml). T cells were co-cultured (5×10^4 cells/well) with aNPCs (5×10^4 cells/well) for 5 d on cover slips coated with Matrigel (BD Biosciences) in 24-well plates. The cultures were then fixed with 2.5% paraformaldehyde in PBS for 30 min at room temperature and stained for neuronal markers.
We therefore sought to determine whether direct interaction between aNPCs and T cells would also result in an altered pattern of aNPC differentiation. To address this question, we activated CD4+ T cells in vitro by a cognate protocol (with anti-CD3 antibodies, anti-CD28 antibodies, and IL-2) for 24 h and then allowed their activation to continue in co-cultures with aNPCs in a transwell culture system. […] After 5 days in culture the aNPCs in the lower chamber were fixed and analyzed for the appearance of newly formed neurons. […]

[2] = test system: neural progenitor cells (NPCs); assay: Neurogenesis from NPCs co-cultured with microglia pre-activated by aggregated Aβ and cytokines; format: cell-based, mouse; conditions: 10 days; Aβ 5 μM 48 h, cytokines 10 ng/ml
Experimental: (xx) Reagents. Recombinant mouse IFN-γ and IL-4 (both containing endotoxin at a concentration below 0.1 ng/μg cytokine) were obtained from R&D Systems (Minneapolis, Minn.). β-amyloid peptides [amyloid protein fragment 1-40 and 1-42 (Aβ1-40/1-42)] were purchased from Sigma-Aldrich, St. Louis, Mo. The Aβ peptides were dissolved in endotoxin-free water, and Aβ aggregates were formed by incubation of Aβ, as described (Ishii et al., 2000). (xxv) Neural progenitor cell culture. Coronal sections (2 mm thick) of tissue containing the subventricular zone of the lateral ventricle were obtained from the brains of adult C57B1/6J mice. […] After centrifugation at 110×g for 15 min at room temperature, the tissue was mechanically dissociated by pipette trituration. Cells obtained from single-cell suspensions were plated (3500 cells/cm^2) in 75-cm^2 Falcon tissue-culture flasks (BD Biosciences, San Diego, Calif.), in NPC-culturing medium [Dulbecco's modified Eagles's medium (DMEM)/F12 medium (Gibco/Invitrogen, Carlsbad, Calif.) containing 2 mM L-glutamine, 0.6% glucose, 9.6 μg/ml putrescine, 6.3 ng/ml progesterone, 5.2 ng/ml sodium selenite, 0.02 mg/ml insulin, 0.1 mg/ml transferrin, 2 μg/ml heparin (all from Sigma-Aldrich, Rehovot, Israel), fibroblast growth factor-2 (human recombinant, 20 ng/ml), and epidermal growth factor (human recombinant, 20 ng/ml; both from Peprotech, Rocky Hill, N.J.)]. Spheres were passaged every 4-6 days and replated as single cells. Green fluorescent protein (GFP)-expressing NPCs were obtained as previously described (Pluchino et al., 2003). (xxvi) Primary microglial culture. Brains from neonatal (P0-P1) C57B1/6J mice were stripped of their meninges and minced with scissors under a dissecting microscope (Zeiss, Stemi DV4, Germany) in Leibovitz-15 medium (Biological Industries, Kibbutz Beit Ha-Emek, Israel). […] The cell suspension was washed in culture medium for glial cells [DMEM supplemented with 10% fetal calf serum (FCS; Sigma-Aldrich, Rehovot), L-glutamine (1 mM), sodium pyruvate (1 mM), penicillin (100 U/ml), and streptomycin ([…])] and cultured at 37° C./5% CO2 in 75-cm^2 Falcon tissue-culture flasks (BD Biosciences) coated with poly-D-lysine (PDL) (10 mg/ml; Sigma-Aldrich, Rehovot) in borate buffer (2.37 g borax and 1.55 g boric acid dissolved in 500 ml sterile water, pH 8.4) for 1 h, then rinsed thoroughly with sterile, glass-distilled water. Half of the medium was changed after 6 h in culture and every 2nd day thereafter, starting on day 2, for a total culture time of 10-14 days. […]

Substance: IL-4: recombinant interleukin-4
- β-III-tubulin expression in aNPCs [1]: no change in β-III-tubulin expression
- neurogenesis (GFP+/βIIIT+ cells) from NPCs co-cultured with treated microglia [2]: partially counteracted the adverse effect of the aggregated Aβ
